Test results as given in patent publication US9266838B2, “Substituted (E)-N′-(1-phenylethylidene)benzohydrazide analogs as histone demethylase inhibitors” (University of Utah Research Foundation, priority 2011, dated 2016).
pIC50: −log10 of the molar value.

How the values were obtained:
LSD1 = LSD1 (Homo sapiens, UniProt O60341); assay: LSD1 histone demethylase assay (LSD1 Inhibitor Screening Assay Kit); assay type: biochemical
Procedure: Briefly, test compounds were diluted to 20× the desired test concentration in 100% DMSO and 2.5 μL of the diluted drug sample was added to a black 384-well plate. The LSD1 enzyme stock was diluted 17-fold with assay buffer and 40 μM of the diluted LSD1 enzyme was added to the appropriate wells.
(§1) IC50 values are determined using GraphPad Prism 5 software. The data were entered as an X-Y plot into the software as percent inhibition for each concentration of the drug. The concentration values of the drug were log transformed and the nonlinear regression was carried out using the “sigmoidal dose-response (variable slope)” option within the GraphPad software to model the data and calculate IC50 values.

T-47D cells = assay: Cell viability assay (ATPlite), T-47D; assay type: cell-based; settings: Homo sapiens, T47D, 96 hours, read-out: Cell Growth, IC50
Procedure: Cells were cultured according to the procedures provided. […] Cells were cultured at 37° C. and 5% CO2.
Cell viability was determined using ATPlite™ Luminescence Assay System (PerkinElmer Inc., Waltham, Mass.) using the various cell-lines described above and in Table 4. Briefly, cells were seeded in 96-well plates and then treated with different concentrations of inhibitor (0.1% final DMSO concentration). After 96-hours of incubation, ATPlite detection reagent was added directly to the culture well. Luminescence was read 5 minutes later on an Envision microplate reader.
as §1

heme oxygenase 1 (HMOX1) = assay: Expression array experiments (transcriptional changes); assay type: cell-based; settings: multiple cell lines; data not shown

| Compound | pIC50 (LSD1) | further results |
| --- | --- | --- |
| O=C(c1cccc(S(=O)(=O)N2CCOCC2)c1)n1ccc(-c2cc(Cl)ccc2O)n1 [Compound 38, (3-(5-chloro-2-hydroxyphenyl)-1H-pyrazol-1-yl)(3-(morpholinosulfonyl)phenyl)methanone] | < 5.52 |  |
| C/C(=N\NC(=O)c1cccc(S(=O)(=O)N2CCOCC2)c1)c1cccc(Cl)c1F [Compound 13, (E)-N′-(1-(3-chloro-2-fluorophenyl)ethylidene)-3-(morpholinosulfonyl)benzohydrazide] |  | pIC50 (T-47D cells): < 5.00 |
| C/C(=N\NC(=O)c1cccc(S(=O)(=O)N2CCN(C)CC2)c1)c1cc(Cl)ccc1O [Compound 35, (E)-N′-(1-(5-chloro-2-hydroxyphenyl)ethylidene)-3-((4-methylpiperazin-1-yl)sulfonyl)benzohydrazide] | > 8.00 |  |
| C/C(=N\NC(=O)c1cccc(S(=O)(=O)N2CCC(C)CC2)c1)c1cc(Cl)ccc1O [Compound 26, (E)-N′-(1-(5-chloro-2-hydroxyphenyl)ethylidene)-3-((4-methylpiperidin-1-yl)sulfonyl)benzohydrazide] | 8.02 |  |
| CNS(=O)(=O)c1cccc(C(=O)N/N=C(\C)c2cc(Cl)ccc2O)c1 [Compound 29, (E)-3-(2-(1-(5-chloro-2-hydroxyphenyl)ethylidene)hydrazinecarbonyl)-N-methylbenzenesulfonamide] | 8.06 |  |
| C/C(=N\NC(=O)c1cccc(S(=O)(=O)N2CCOCC2)c1)c1cc(Cl)ccc1O [Compound 12, (E)-N′-(1-(5-chloro-2-hydroxyphenyl)ethylidene)-3-(morpholinosulfonyl)benzohydrazide] |  | transcriptional change of HMOX1 (heme oxygenase 1 (HMOX1)): one of the most consistently up-regulated genes |
